Data reported in patent US20050170041A1, “Chewing gum compositions comprising monatin and methods for making same” (Cargill, Inc., priority 2003, published 2005).
“Also recorded” adds a separate entry of the source.

How the values were obtained:
[1] = Sensory evaluation of chewing gums (quality and time-intensity of sweetness); type: in vivo; details: in chewing gum, versus aspartame or sucralose
Experimental: Chewing gums sweetened individually with monatin, aspartame and sucralose were prepared in stick gum format of mint flavor. The gums were prepared to be iso-sweet and evaluated for quality of sweet taste and time-intensity of sweetness delivery.
A standard method of manufacture was adopted for all three gum formulations, as described.
The method of gum manufacture was as follows: • Pre-warm the gum base to 40-45° C. and then add to Z-blade mixer and mix • Sieve sorbitol powder • Remove a portion of the sorbitol, disperse sweetener in that portion and mix thoroughly • Return sweetener/sorbitol mix to remaining bulk of sorbitol powder and mix thoroughly • Mix lycasin and glycerol into a bowl and pre-heat to 50° C. • Add sorbitol powder to the Z-blade mixer containing the gum base • Add lycasin/glycerol and flavor to the Z-blade and mix for 20 minutes • Remove gum from Z-blade mixer • Roll to a thickness of 1.5 mm using a mechanical roller • Dust with talc in the ratio 3 g talc to 100 g gum • Cut into sticks measuring 19 mm×73 mm • Wrap individual sticks in foil Sensory Evaluation
Chewing gum compositions were evaluated by a panel of trained sensory assessors (n 4), all very experienced in the formal sensory evaluation of chewing gums, including an evaluation for time/intensity parameters. Qualitative and temporal characteristics of the gum's flavor and sweetness were evaluated.

[2] = Sensory stability of monatin and aspartame at pH 2.5, 3.0, 4.0 at 40° C.; type: physicochemical; details: for Rate constant (k) of sweetness loss: 40° C., pseudo-first order assumed; for SEV Monatin / Retention of Monatin Sweetness: stored at 40° C., monatin ~55 ppm
Experimental: The sensory stability of monatin solutions prepared at pH 2.5, 3.0 and 4.0 and stored at 40° C. was monitored for 100 days. Loss of sweetness from these solutions was compared with the losses of sweetness from aspartame solutions prepared and stored under identical conditions.
The sensory stability of monatin (8% SEV, ˜55 ppm, synthetic blend containing approximately 96% of the 2R,4R/2S, 4S enantiometric pair and 4% of the 2R,4S/2S,4R enantiometric pair) in phosphate/citrate buffers having a pH of 2.5, 3.0, and 4.0 was examined after storage at 40° C. The stability of monatin was compared to that of aspartame (400 ppm) in the same buffers. Three sucrose reference solutions were prepared in the same phosphate/citrate buffers as the monatin and aspartame solutions. All prepared solutions were stored in the dark.
The sweetness of each sweetener relative to sucrose was assessed in duplicate by a panel (n=8) of trained sensory evaluators experienced in the sweetness estimation procedure. All samples (in the same buffers) were served in duplicate at a temperature of 22° C.±1° C. Monatin (test) solutions, coded with 3 digit random number codes were presented individually to panelists, in random order. Sucrose reference standards, ranging from 4.0-10.0% (w/v) sucrose, increasing in steps of 0.5% (w/v) sucrose were also provided. Panelists were asked to estimate sweetness by comparing the sweetness of the test solution to the sucrose standards. This was carried out by taking 3 sips of the test solution, followed by a sip of water, followed by 3 sips of sucrose standard followed by a sip of water, etc. Panelists were encouraged to estimate the sweetness to one decimal place, e.g., 6.8, 8.5. A five minute rest period was imposed between evaluating the test solutions. Panelists were also asked to rinse well and eat a cracker to reduce any potential carry over effects.
If a pseudo-first order breakdown reaction is assumed, a plot of logn percentage retention versus time (logn % RTN v. t) allows estimation of the half-life (t½) and rate constant (k) of sweetness loss under any given set of conditions. In so doing, the kinetics of monatin and aspartame sweetness loss may be summarized as follows in Table 14.

[3] = Stability of monatin at high temperature (80° C.) and neutral pH, LC-MS; type: physicochemical; details: pH 7, 75 ppm, after 7-35 days, synthetic ~96% 2R,4R/2S,4S
Experimental: A 100 milliliter solution of 75 ppm monatin at pH 7 was used as a stock solution. The synthetic monatin sample contained approximately 96% of the 2R,4R/2S,4S enantiomeric pair and 4% of the 2R,4S/2S,4R enantiomeric pair. Samples were incubated at 80° C. and pH 7 for the duration of the experiment and samples were withdrawn at 0, 1, 2, 3, 4 hours and 1, 2, 4, 7, 14, 21 and 35 days. All experimental conditions were run in duplicate.
A response curve was established for both detected diastereomer peaks of the synthetic monatin. A range of 5-150 ppm was bracketed with the synthetic monatin standard dissolved in DI water. Separation of the two diastereomer peaks was accomplished using a 3.9×150 mm Novapak C18 (Waters Corporation) HPLC column. Ultraviolet-Visible (UV) and Mass Spectrometer (MS) detectors were used in series for detection and quantitation. Monatin and its lactone peak each have a UVmax at 279 nm that aided in precise detection. Quantification was done by acquiring Selected Ion Monitoring (SIM) scan of 293.3 m/z and 275.3 m/z in positive-ion electrospray mode.

NC(CC(O)(Cc1c[nH]c2ccccc12)C(=O)O)C(=O)O (stereo not shown) [Monatin, 2-hydroxy-2-(indol-3-ylmethyl)-4-aminoglutaric acid]
time/intensity profile for sweetness [1]: very clearly superior to either aspartame or sucralose | stability of sweetness compared with aspartame ([2]; acidic conditions and storage at 40° C.): more stable sweetness than does aspartame | percentage retention of sweetness compared with aspartame ([2]; each pH (2.5, 3.0, 4.0), after 100 days storage at 40° C.): greater than that retained with aspartame; also recorded: greater than that retained from aspartame | Rate constant (k) of sweetness loss ([2]; pH 2.5): 0.011 day⁻¹ | Sweetness Retained ([2]; pH 2.5, after 100 days storage at 40° C.): 29% | SEV Monatin ([2]; pH 2.5, day 0): 7.35 % sucrose | Retention of Monatin Sweetness ([2]; pH 2.5, day 1): 93.3% | SEV Monatin ([2]; pH 2.5, day 1): 6.86 % sucrose | Retention of Monatin Sweetness ([2]; pH 2.5, day 2): 91.2% | SEV Monatin ([2]; pH 2.5, day 2): 6.70 % sucrose | Retention of Monatin Sweetness ([2]; pH 2.5, day 3): 88.4% | SEV Monatin ([2]; pH 2.5, day 3): 6.50 % sucrose | Retention of Monatin Sweetness ([2]; pH 2.5, day 4): 85.2% | SEV Monatin ([2]; pH 2.5, day 4): 6.26 % sucrose | Retention of Monatin Sweetness ([2]; pH 2.5, day 7): 82.7% | SEV Monatin ([2]; pH 2.5, day 7): 6.08 % sucrose | Retention of Monatin Sweetness ([2]; pH 2.5, day 8): 81.4% | SEV Monatin ([2]; pH 2.5, day 8): 5.98 % sucrose | Retention of Monatin Sweetness ([2]; pH 2.5, day 9): 80.1% | SEV Monatin ([2]; pH 2.5, day 9): 5.89 % sucrose | Retention of Monatin Sweetness ([2]; pH 2.5, day 11): 78.6% | SEV Monatin ([2]; pH 2.5, day 11): 5.78 % sucrose | Retention of Monatin Sweetness ([2]; pH 2.5, day 50): 62.7% | SEV Monatin ([2]; pH 2.5, day 50): 4.61 % sucrose | Retention of Monatin Sweetness ([2]; pH 2.5, day 100): 28.6% | SEV Monatin ([2]; pH 2.5, day 100): 2.10 % sucrose | Rate constant (k) of sweetness loss ([2]; pH 3.0): 0.006 day⁻¹ | Sweetness Retained ([2]; pH 3.0, after 100 days storage at 40° C.): 58% | SEV Monatin ([2]; pH 3.0, day 0): 7.08 % sucrose | Retention of Monatin Sweetness ([2]; pH 3.0, day 1): 99.6% | SEV Monatin ([2]; pH 3.0, day 1): 7.05 % sucrose | Retention of Monatin Sweetness ([2]; pH 3.0, day 2): 93.2% | SEV Monatin ([2]; pH 3.0, day 2): 6.60 % sucrose | Retention of Monatin Sweetness ([2]; pH 3.0, day 3): 91.4% | SEV Monatin ([2]; pH 3.0, day 3): 6.47 % sucrose | Retention of Monatin Sweetness ([2]; pH 3.0, day 4): 91.6% | SEV Monatin ([2]; pH 3.0, day 4): 6.49 % sucrose | Retention of Monatin Sweetness ([2]; pH 3.0, day 7): 85.3% | SEV Monatin ([2]; pH 3.0, day 7): 6.04 % sucrose | Retention of Monatin Sweetness ([2]; pH 3.0, day 8): 83.8% | SEV Monatin ([2]; pH 3.0, day 8): 5.93 % sucrose | Retention of Monatin Sweetness ([2]; pH 3.0, day 9): 83.1% | SEV Monatin ([2]; pH 3.0, day 9): 5.88 % sucrose | Retention of Monatin Sweetness ([2]; pH 3.0, day 11): 83.1% | SEV Monatin ([2]; pH 3.0, day 11): 5.88 % sucrose | Retention of Monatin Sweetness ([2]; pH 3.0, day 50): 72.3% | SEV Monatin ([2]; pH 3.0, day 50): 5.12 % sucrose | Retention of Monatin Sweetness ([2]; pH 3.0, day 100): 57.9% | SEV Monatin ([2]; pH 3.0, day 100): 4.10 % sucrose | Rate constant (k) of sweetness loss ([2]; pH 4.0): 0.003 day⁻¹ | Sweetness Retained ([2]; pH 4.0, after 100 days storage at 40° C.): 78% | SEV Monatin ([2]; pH 4.0, day 0): 7.40 % sucrose | Retention of Monatin Sweetness ([2]; pH 4.0, day 3): 95.7% | SEV Monatin ([2]; pH 4.0, day 3): 7.08 % sucrose | Retention of Monatin Sweetness ([2]; pH 4.0, day 8): 86.8% | SEV Monatin ([2]; pH 4.0, day 8): 6.42 % sucrose | Retention of Monatin Sweetness ([2]; pH 4.0, day 11): 85.9% | SEV Monatin ([2]; pH 4.0, day 11): 6.36 % sucrose | Retention of Monatin Sweetness ([2]; pH 4.0, day 17): 82.4% | SEV Monatin ([2]; pH 4.0, day 17): 6.10 % sucrose | Retention of Monatin Sweetness ([2]; pH 4.0, day 24): 84.5% | SEV Monatin ([2]; pH 4.0, day 24): 6.25 % sucrose | Retention of Monatin Sweetness ([2]; pH 4.0, day 50): 82.9% | SEV Monatin ([2]; pH 4.0, day 50): 6.14 % sucrose | Retention of Monatin Sweetness ([2]; pH 4.0, day 100): 78.4% | SEV Monatin ([2]; pH 4.0, day 100): 5.80 % sucrose | degree of degradation [3]: insignificant
